# Data published in patent US4146501A, “Process for isolating and purifying taste bud receptors for screening and evaluating tastants” (priority 1976, dated 1979).
# Read-outs that look alike come from different tables or passages of the source.
# What was measured:
# [1] = test system: taste bud subfraction P4(B); assay: Binding inhibition of 14C sucrose by various substances; parameters: species or system bovine
# [2] = biological target: taste bud P4(B) subfractions; assay: Specific binding: competition of 14C sugars or SSS with unlabeled homologous and heterologous sugars, Scatchard analysis; parameters: species or system bovine; details: for Kd: mean ± 1 SEM; for specific binding (competition of 14C sugar or SSS with homologous unlabeled sugar or SSS): taste bud P4(B), FIG. 7; for Inhibition (%) of 14C Fructose binding by unlabelled sugar / Inhibition (%) of 14C Glucose binding by unlabelled sugar / Inhibition (%) of 14C Sucrose binding by unlabelled sugar: maximal concentration of unlabelled sugar, range of values; for Relative Binding Inhibition: homologous set at 100
# [3] = test system: taste bud filtrates and B subfractions [P2,3,4(B)]; assay: Binding of 14C sugars to taste bud filtrates and B subfractions; parameters: species or system bovine; details: for 14C sugar binding / Relative enrichment of sugar binding compared to the initial filtrate: Bud; for 14C sugar binding: 30 min at 30° C
# Procedure: (§1) The following procedure was utilized in tastant evaluation according to the process of this invention: Protein concentrations were determined by the methods of Lowry et al., (1951) J. Biol. […] According to density, physical appearance as determined by using electron microscopic morphology enzymatic activity and chemical analysis, B subfractions from taste buds and epithelial tissues achieved the greatest membrane purification compared with other subfractions. Among the taste bud B subfractions, P4(B) was morphologically more homogeneous with respect to membranes than P3(B) whereas P2(B) was the least homogeneous of all. Epithelial tissue B subfractions contained mainly fibrous tissue and few differences were found in morphology, density, enzymatic activity or chemical analysis between P2(B) or P4(B) subfractions. Taste bud and epithelial tissue D subfractions contained relatively few membrane fragments compared to the large amount of other cellular organelles present and therefore were not included in these studies. […] Each filtrate and subfraction was washed three times with calcium free, 0.2 M Krebs-Ringer bicarbonate (KRB) pH 7.4, suspended in the same buffer in a final volume of 2 ml and frozen in liquid nitrogen. No detectable change in binding characteristics from suspensions of taste bud or epithelial tissue fractions was observed after storage at -80° for as long as two months. All binding studies were carried out in plastic micro test tubes in a constant temperature shaking bath. For these studies KRB, suspensions of the initial filtrates, subfractions and ^14 C labeled and/or unlabeled sugars were incubated in a final volume of 100 μl. After incubation the tubes were placed in an ice bath, centrifuged, the supernatant aspirated and 10 μl KRB layered on top of the pellet. The KRB was then aspirated, the top of the test tube cut off with a razor blade just above the bellet, placed into 10 ml Aquasol (New England Nuclear Corp., Boston, Mass.) and the radioactivity determined in a liquid scintillation spectrophotometer. Controls, without filtrates or subfractions, were also included. […] The tubes were then placed in an ice bath for 3 minutes, and then centrifuged at 15,000 rpm for 6 min.
# [4] = test system: non-taste bud bearing epithelial tissue filtrates and B subfractions [P2,4(B)]; assay: Binding of 14C sugars to non-taste bud bearing epithelial tissue filtrates and B subfractions (control); parameters: species or system bovine; details: Epi; for 14C sugar binding: 30 min at 30° C
# Procedure: as §1
# [5] = test system: taste bud subfraction P4(B); assay: Time and temperature effects on 14C sucrose binding; parameters: species or system bovine; details: 26 μM 14C sucrose
# Procedure: (§2) All binding studies were carried out in plastic micro test tubes in a constant temperature shaking bath. For these studies KRB, suspensions of the initial filtrates, subfractions and ^14 C labeled and/or unlabeled sugars were incubated in a final volume of 100 μl. After incubation the tubes were placed in an ice bath, centrifuged, the supernatant aspirated and 10 μl KRB layered on top of the pellet.
# (§3) The KRB was then aspirated, the top of the test tube cut off with a razor blade just above the bellet, placed into 10 ml Aquasol (New England Nuclear Corp., Boston, Mass.) and the radioactivity determined in a liquid scintillation spectrophotometer. Controls, without filtrates or subfractions, were also included. These controls represent background radioactivity composed mainly of ^14 C sugars bound to the walls of the plastic test tubes. This background radioactivity was always found to be less than 1% of the lowest level obtained in any study with added tissue fractions. Calculations of ^14 C sugar binding also included a correction for non-specific binding (i.e., ^14 C sugar binding not inhibited by an excess of the unlabeled homologous sugar, which occurred when tissue suspensions were used. This value (40%) was the mean calculated from the results of 56 duplicate experiments. […]
# [6] = test system: taste bud P4(B) subfractions; assay: Displacement of bound 14C sucrose by unlabeled sucrose; type: binding, bovine; details: after addition of unlabeled sucrose (0.01-1 mM), FIG. 5; 20 min
# Procedure: as §2, §3
# [7] = test system: epithelial P4(B) subfractions; assay: Displacement of bound 14C sucrose by unlabeled sucrose (epithelial control); type: binding, bovine
# Procedure: as §2, §3
# [8] = behavioral basis, cow; cited from earlier work
# [9] = cited from earlier work
# [10] = Filtrate, 14C glucose 200 μM, fructose 400 μM, sucrose 26 μM
# [11] = Scatchard plot, single class of sites, read-out: Kd (dissociation constant)
# [12] = section SUCROSE (as the 14C sugar per footnote) with each unlabelled sugar
specific binding (competition of 14C sugar or SSS with homologous unlabeled sugar or SSS) [2],"14C sugar binding [3, 10] [cpm/mg protein]",Relative enrichment of sugar binding compared to the initial filtrate ([3]; P2(B)),14C sugar binding ([3]; P2(B)) [cpm/mg protein],Relative enrichment of sugar binding compared to the initial filtrate ([3]; P3(B)),14C sugar binding ([3]; P3(B)) [cpm/mg protein],Relative enrichment of sugar binding compared to the initial filtrate ([3]; P4(B)),14C sugar binding ([3]; P4(B)) [cpm/mg protein],"14C sugar binding [4, 10] [cpm/mg protein]",Relative enrichment of sugar binding compared to the initial filtrate ([4]; P2(B)),14C sugar binding ([4]; P2(B)) [cpm/mg protein],Relative enrichment of sugar binding compared to the initial filtrate ([4]; P4(B)),14C sugar binding ([4]; P4(B)) [cpm/mg protein],"competition of unlabeled sugar with fructose binding ([2]; FIG. 8, in words)","Kd [2, 11] [mM]",Inhibition (%) of 14C Fructose binding by unlabelled sugar [2],Inhibition (%) of 14C Glucose binding by unlabelled sugar [2],Inhibition (%) of 14C Sucrose binding by unlabelled sugar [2],"Relative Binding Inhibition [2, 12] [%]",SMILES,inhibition of 14C sucrose binding [1],other results
occurred,36000,3.1,113000,7.0,255000,23.8,868000,33000,1.1,37000,0.5,18000,competed with both glucose and fructose,1.1 ± 0.4,50-60%,60-65%,70-80%,100,"OC[C@H]1O[C@@](CO)(O[C@H]2O[C@H](CO)[C@@H](O)[C@H](O)[C@H]2O)[C@@H](O)[C@@H]1O [Sucrose, sucrose]",,"increase in sugar binding compared to the initial filtrate ([3]; taste bud subfraction P3(B)): 7 fold; increase in sugar binding compared to the initial filtrate ([3]; taste bud subfraction P4(B)): 24 fold; increase of sucrose binding activity following increase in incubation temperature from 0° C. to 30° C. ([5]; FIG. 3): four; time to plateau of 14C sucrose binding ([5]; at 30° C.): about 25 min; maximum displacement of the 14C sucrose initially bound [6]: about 80%; reversal of 14C sucrose binding by excess unlabeled sucrose [7]: could not be reversed; competition of unlabeled sugar with glucose binding ([2]; FIG. 8, in words): competed with both glucose and fructose; Inhibition (%) of 14C Sucrose binding by unlabelled sugar ([2]; listed as sucrose): about 80%; q (concentration of sugar or SSS bound per mg subfraction protein) ([2]; single class of sites): 51 ± 8 mM/mg protein; bovine discrimination thresholds [8]: 0.03 M; Recognition thresholds in man [9]: 0.01 to 0.03 M; detection thresholds in normal man ([9]; reported as low as): ≥ 5 mM"
occurred,37000,3.2,120000,9.7,360000,9.4,348000,22000,1.3,29000,0.8,17000,did not compete,3.4 ± 1.1,14-20%,70-80%,14-20%,32,"OC[C@H]1OC(O)[C@H](O)[C@@H](O)[C@@H]1O (stereo partly drawn) [Glucose, glucose]",,"competition of unlabeled sugar with sucrose binding ([2]; FIG. 8, in words): did not compete; Inhibition (%) of 14C Glucose binding by unlabelled sugar ([2]; listed as glucose): eighty; Relative Binding Inhibition ([2]; section FRUCTOSE (as the 14C sugar per footnote) with each unlabelled sugar): 51%; Relative Binding Inhibition ([2]; section GLUCOSE (as the 14C sugar per footnote) with each unlabelled sugar): 100%; q (concentration of sugar or SSS bound per mg subfraction protein) ([2]; single class of sites): 2.5 ± 0.5 mM/mg protein; Recognition thresholds in man [9]: 0.01 to 0.03 M"

# The next lines start with the compound.
SMILES,specific binding (competition of 14C sugar or SSS with homologous unlabeled sugar or SSS) [2],"14C sugar binding [3, 10] [cpm/mg protein]",Relative enrichment of sugar binding compared to the initial filtrate ([3]; P2(B)),14C sugar binding ([3]; P2(B)) [cpm/mg protein],Relative enrichment of sugar binding compared to the initial filtrate ([3]; P3(B)),14C sugar binding ([3]; P3(B)) [cpm/mg protein],Relative enrichment of sugar binding compared to the initial filtrate ([3]; P4(B)),14C sugar binding ([3]; P4(B)) [cpm/mg protein],"14C sugar binding [4, 10] [cpm/mg protein]",Relative enrichment of sugar binding compared to the initial filtrate ([4]; P2(B)),14C sugar binding ([4]; P2(B)) [cpm/mg protein],Relative enrichment of sugar binding compared to the initial filtrate ([4]; P4(B)),14C sugar binding ([4]; P4(B)) [cpm/mg protein],"competition of unlabeled sugar with fructose binding ([2]; FIG. 8, in words)","Kd [2, 11] [mM]",Inhibition (%) of 14C Fructose binding by unlabelled sugar [2],Inhibition (%) of 14C Glucose binding by unlabelled sugar [2],Inhibition (%) of 14C Sucrose binding by unlabelled sugar [2],"Relative Binding Inhibition [2, 12] [%]",inhibition of 14C sucrose binding [1],other results
[Cl-].[Na+] [NaCl],,,,,,,,,,,,,,,,,,,,~50%,
"O=C(O)CN(CCN(CC(=O)O)CC(=O)O)CC(=O)O [EDTA, ethylenediaminetetraacetic acid]",,,,,,,,,,,,,,,,,,,,approximately 40%,
"O=S(=O)(O)NC1CCCCC1 [CYCLAMATE, cyclamate]",occurred,,,,,,,,,,,,,,,,,,,,"Kd ([2]; non-linear Scatchard plot, primary class of binding sites, read-out: Kd (dissociation constant), K1): 11.7 ± 2.4 mM; Kd ([2]; non-linear Scatchard plot, secondary class of binding sites, read-out: Kd (dissociation constant), K2): 32.6 ± 3.9 mM; q (concentration of sugar or SSS bound per mg subfraction protein), K1 ([2]; primary class of binding sites): 4.0 ± 0.9 mM/mg protein; q (concentration of sugar or SSS bound per mg subfraction protein), K2 ([2]; secondary class of binding sites): 6.6 ± 1.4 mM/mg protein"
